# Assay results: patent publication US20120034641A1, “BIOLOGICAL INFORMATION ACQUISITION METHOD” (SONY CORPORATION, priority 2010, published 2012)
# Legend:
# [1] = intake of alcohol while eating vs no alcohol; FIG. 10
# Experimental: The tip of index finger was gently wiped with a paper towel soaked with pure water. The bottom end of a microtube containing 50 μL of pure water was held with the thumb, with the upper opening of the microtube in contact with the tip of the index finger (see FIG. 1A). With the microtube held with the index finger and the thumb, the microtube was inverted to contact the pure water to the skin surface of the index finger for 1 minute.
# Eleven subjects were allowed to eat the same food during the time period of from 12:00 to 13:00, and the epidermal fluid was collected at 12:00, 13:00, 14:00, 15:00, and 16:00.
# [2] = system: three-dimensional culture skin (Kurabo; EPI-200X); test: Nicotinamide metabolites on the epidermis surface of cultured skin after adding cortisol to the culture solution; type: cell-based; conditions: glucocorticoid (cortisol) 50 nM or 500 nM in culture solution, sample collected from epidermis side after 1 hour
# Experimental: Assessment was made as to the ability of a cultured skin to secrete nicotinamide metabolites on the horny layer of epidermis surface in response to cortisol or glucose. A three-dimensional culture skin (Kurabo; EPI-200X) was cultured with its dermis side in contact with the culture solution. Glucocorticoid (cortisol) was added to the culture solution to make the final concentration 50 nM or 500 nM. After 1 hour, 150 μL of PBS was contacted to the epidermis side, and the sample was collected. The amounts of NAD+, NADH, NADP+, and NADPH in the sample were then measured using commercially available colorimetric analysis kits (Amplite Colorimetric NAD/NADH Assay Kit, Amplite Colorimetric NADP/NADPH Assay Kit; ABD Bioquest Inc.).
Compound,transient increase in NAD+/NADH ratio in epidermal fluid [1],NAD+/NADH ratio ([2]; FIG. 12A),NADP+/NADPH ratio ([2]; FIG. 12B)
CCO [alcohol],more enhanced,–,–
"C[C@]12CCC(=O)C=C1CC[C@@H]1[C@@H]2[C@@H](O)C[C@@]2(C)[C@H]1CC[C@]2(O)C(=O)CO [glucocorticoid, cortisol]",–,increased concentration dependently,no change
